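Test compounds were applied to cells in 96-well plates for 48 hours at 5 doses. Abbreviation: GI50, concentration required for 50% inhibition of growth.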 Activity calls are given as the source filed them. Rule as the data show it: active = GI50 up to about 1.1 µM and inactive = higher.
How the values were obtained:
Assay in all cases: NCI tumour cell line growth inhibition, 48 h
OVCAR-5 = system: OVCAR-5
NCI-H226 = system: NCI-H226
PC-3 = system: PC-3
HL-60 = system: HL-60
ACHN = system: ACHN
OVCAR-3 = system: OVCAR-3
TK-10 = system: TK-10
SNB-19 = system: SNB-19
SW-620 = system: SW-620
UO-31 = system: UO-31
MDA-MB-231 = system: MDA-MB-231
K562 = system: K562
SR = system: SR
Hs-578T = system: Hs-578T
EKVX = system: EKVX
KM12 = system: KM12
MCF7 = system: MCF7
DU-145 = system: DU-145
RXF 393 = system: RXF 393
HT-29 = system: HT-29

SMILES	GI50 (OVCAR-5)	GI50 (NCI-H226)	GI50 (PC-3)	GI50 (HL-60)	GI50 (ACHN)	GI50 (OVCAR-3)	GI50 (TK-10)	GI50 (SNB-19)	GI50 (SW-620)	GI50 (UO-31)	GI50 (MDA-MB-231)	GI50 (K562)	GI50 (SR)	GI50 (Hs-578T)	GI50 (EKVX)	GI50 (KM12)	GI50 (MCF7)	GI50 (DU-145)	GI50 (RXF 393)	GI50 (HT-29)
CN(C)c1ccc(/C=C/C(=O)c2ccc(O)cc2)cc1	38.6 µM (inactive)	56.4 µM (inactive)	14.8 µM (inactive)	1.79 µM (inactive)	18.8 µM (inactive)	2.9 µM (inactive)	35.3 µM (inactive)	25.1 µM (inactive)	3.57 µM (inactive)	14.4 µM (inactive)	22.3 µM (inactive)	1.7 µM (inactive)	0.33 µM (active)	17.4 µM (inactive)	31.3 µM (inactive)	3.25 µM (inactive)	4.11 µM (inactive)	8.67 µM (inactive)	6.27 µM (inactive)	5.21 µM (inactive)
Cc1ccc(-c2nnc(-c3ccc4ccccc4c3)o2)cc1	> 61.8 µM (inactive)	25.2 µM (inactive)	52.2 µM (inactive)	2.93 µM (inactive)	> 100 µM (inactive)	99.1 µM (inactive)	7.94 µM (inactive)	> 96.6 µM (inactive)	20 µM (inactive)	15.1 µM (inactive)	25.8 µM (inactive)	7.26 µM (inactive)	7.36 µM (inactive)	23 µM (inactive)	40.2 µM (inactive)	> 100 µM (inactive)	> 100 µM (inactive)	18.2 µM (inactive)	5.87 µM (inactive)	> 87.9 µM (inactive)
CN(N=O)c1ccc(/C=C/c2ccnc3ccccc23)cc1	> 100 µM (inactive)	47.8 µM (inactive)	76.4 µM (inactive)	92.3 µM (inactive)	47 µM (inactive)	95.1 µM (inactive)	29.4 µM (inactive)	46.5 µM (inactive)	73.3 µM (inactive)	30.4 µM (inactive)	88.7 µM (inactive)	78.9 µM (inactive)	31.8 µM (inactive)	> 100 µM (inactive)	26.4 µM (inactive)	93.5 µM (inactive)	53.8 µM (inactive)	61.5 µM (inactive)	46.6 µM (inactive)	43.3 µM (inactive)
CC#CCCN(CC#N)Cc1ccccc1	> 100 µM (inactive)	> 100 µM (inactive)	> 100 µM (inactive)	> 100 µM (inactive)	21.3 µM (inactive)	–	> 100 µM (inactive)	> 100 µM (inactive)	–	> 100 µM (inactive)	> 100 µM (inactive)	> 100 µM (inactive)	> 100 µM (inactive)	> 100 µM (inactive)	> 100 µM (inactive)	> 100 µM (inactive)	20.1 µM (inactive)	> 100 µM (inactive)	> 100 µM (inactive)	> 100 µM (inactive)
NC(Cc1ccc(O)cn1)C(=O)NC(C(=O)O)c1ccccc1 (stereo unspecified)	> 100 µM (inactive)	> 100 µM (inactive)	> 100 µM (inactive)	> 100 µM (inactive)	> 100 µM (inactive)	> 100 µM (inactive)	> 100 µM (inactive)	> 100 µM (inactive)	> 100 µM (inactive)	> 100 µM (inactive)	> 100 µM (inactive)	> 100 µM (inactive)	> 100 µM (inactive)	> 100 µM (inactive)	> 100 µM (inactive)	> 100 µM (inactive)	> 100 µM (inactive)	> 100 µM (inactive)	> 100 µM (inactive)	> 100 µM (inactive)
C=CC1(CC/C(=C\[N+](=O)[O-])c2ccc(OC)c(OC)c2)OCC(C)(C)CO1	16.1 µM (inactive)	16.4 µM (inactive)	25.6 µM (inactive)	5.27 µM (inactive)	17.8 µM (inactive)	20.6 µM (inactive)	17.5 µM (inactive)	16.9 µM (inactive)	26.9 µM (inactive)	15.1 µM (inactive)	25.9 µM (inactive)	6.61 µM (inactive)	3.61 µM (inactive)	24 µM (inactive)	18 µM (inactive)	15.5 µM (inactive)	13.9 µM (inactive)	16.7 µM (inactive)	12.9 µM (inactive)	19.9 µM (inactive)
CC1OC(O[C@H]2CC[C@]3(C)[C@H]4CC=C5[C@@H]6[C@@H](C)[C@H](C)CC[C@]6(C(=O)OC6OC(CO)C(O)C(O)C6O)CC[C@@]5(C(=O)O)[C@]4(C)CC[C@H]3C2(C)C)C(O)C(O)C1O (stereo partly specified)	> 100 µM (inactive)	–	> 100 µM (inactive)	> 100 µM (inactive)	> 100 µM (inactive)	> 100 µM (inactive)	> 100 µM (inactive)	> 100 µM (inactive)	> 100 µM (inactive)	> 100 µM (inactive)	> 100 µM (inactive)	> 100 µM (inactive)	> 100 µM (inactive)	> 100 µM (inactive)	–	> 100 µM (inactive)	> 100 µM (inactive)	> 100 µM (inactive)	> 100 µM (inactive)	–
COC(=O)C12C3C4C1C1C2C3C41C(=O)NC(C)(C)CC(=O)O (stereo unspecified)	> 100 µM (inactive)	> 100 µM (inactive)	> 100 µM (inactive)	> 100 µM (inactive)	> 100 µM (inactive)	> 100 µM (inactive)	> 100 µM (inactive)	> 100 µM (inactive)	> 100 µM (inactive)	> 100 µM (inactive)	> 100 µM (inactive)	–	> 100 µM (inactive)	> 100 µM (inactive)	> 100 µM (inactive)	> 100 µM (inactive)	> 100 µM (inactive)	> 100 µM (inactive)	> 100 µM (inactive)	> 100 µM (inactive)
[O-][n+]1cc(SCc2ccccc2)ncc1SCc1ccccc1	> 10 µM (inactive)	> 10 µM (inactive)	> 10 µM (inactive)	> 10 µM (inactive)	> 10 µM (inactive)	> 10 µM (inactive)	> 10 µM (inactive)	–	–	> 10 µM (inactive)	> 10 µM (inactive)	> 10 µM (inactive)	> 10 µM (inactive)	> 10 µM (inactive)	> 10 µM (inactive)	> 10 µM (inactive)	> 10 µM (inactive)	> 10 µM (inactive)	> 10 µM (inactive)	> 10 µM (inactive)
COc1ccc2oc(=N)c(C(N)=S)cc2c1	29.9 µM (inactive)	19.9 µM (inactive)	27.5 µM (inactive)	14.3 µM (inactive)	21.4 µM (inactive)	–	26.1 µM (inactive)	31.2 µM (inactive)	25.5 µM (inactive)	19.6 µM (inactive)	18 µM (inactive)	28.4 µM (inactive)	20 µM (inactive)	23.2 µM (inactive)	29.6 µM (inactive)	22.2 µM (inactive)	27.7 µM (inactive)	27.2 µM (inactive)	17 µM (inactive)	32 µM (inactive)

Reference: ChEMBL document CHEMBL1201862, “PubChem BioAssay data set” (2004)
